Experimental data as given in the supplement of paper PMC10307832.

Assays:
Experiment in all cases: relative viability (nuclei count vs DMSO), 5 days (fraction); higher = more cells survive
[1] = compound: CCN(CCO)CCCC(C)Nc1ccnc2cc(Cl)ccc12 [Hydroxychloroquine] + CS(=O)(=O)N1CCN(Cc2cc3nc(-c4cccc5[nH]ncc45)nc(N4CCOCC4)c3s2)CC1 [Pictilisib] (partner 1 µM)
Procedure, shortened: (§1)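 Lung cancer cell lines were pin-tool dosed in 1536-well plates on the day after seeding, with either a lone drug or a fixed anchor-drug dose plus five library-drug doses (not always all listed) in √10 steps. Nuclei were counted on 4× images after 5 days. Relative viability is the ratio of treated-well to vehicle-well nuclei counts, with each value a median of duplicate plates.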

[2] = compound: CCN(CCO)CCCC(C)Nc1ccnc2cc(Cl)ccc12 [Hydroxychloroquine] + CC(C)C[C@H](NC(=O)[C@H](Cc1ccccc1)NC(=O)c1cnccn1)B(O)O [Bortezomib] (partner 0.002 µM)
Procedure, shortened: as §1

[3] = compound: CCN(CCO)CCCC(C)Nc1ccnc2cc(Cl)ccc12 [Hydroxychloroquine] + CC(=O)c1c(C)c2cnc(Nc3ccc(N4CCNCC4)cn3)nc2n(C2CCCC2)c1=O [Palbociclib] (partner 0.5 µM)
Procedure, shortened: as §1

[4] = compound: CCN(CCO)CCCC(C)Nc1ccnc2cc(Cl)ccc12 [Hydroxychloroquine] + COc1cc2c(Oc3ccc(NC(=O)C4(C(=O)Nc5ccc(F)cc5)CC4)cc3F)ccnc2cc1OCCCN1CCOCC1 [Foretinib] (partner 0.25 µM)
Procedure, shortened: as §1

Row | Cell Line | relative viability ([1]; first compound 0.5 µM) | relative viability ([1]; first compound 1.581 µM) | relative viability ([1]; first compound 5 µM) | relative viability ([1]; first compound 15.81 µM) | relative viability ([1]; first compound 50 µM) | relative viability ([2]; first compound 0.5 µM) | relative viability ([2]; first compound 1.581 µM) | relative viability ([2]; first compound 5 µM) | relative viability ([2]; first compound 15.81 µM) | relative viability ([2]; first compound 50 µM) | relative viability ([3]; first compound 0.5 µM) | relative viability ([3]; first compound 1.581 µM) | relative viability ([3]; first compound 5 µM) | relative viability ([3]; first compound 15.81 µM) | relative viability ([3]; first compound 50 µM) | relative viability ([4]; first compound 0.5 µM) | relative viability ([4]; first compound 1.581 µM) | relative viability ([4]; first compound 5 µM) | relative viability ([4]; first compound 15.81 µM) | relative viability ([4]; first compound 50 µM)
1 | 201T | 0.687 | 0.555 | 0.641 | 0.631 | 0.698 | 1.07 | 1.09 | 1.1 | 1.07 | 1.11 | 0.339 | 0.351 | 0.378 | 0.379 | 0.384 | 1.21 | 1.05 | 1.03 | 1.2 | 1.2
2 | A-427 | 0.713 | 0.624 | 0.674 | 0.585 | 0.628 | 0.956 | 0.946 | 0.982 | 0.961 | 1.06 | 0.499 | 0.474 | 0.483 | 0.512 | 0.493 | 1.05 | 1.09 | 0.974 | 1.15 | 1.16
3 | ABC-1 | 0.75 | 0.761 | 0.783 | 0.815 | 0.737 | 0.263 | 0.271 | 0.277 | 0.297 | 0.235 | 0.726 | 0.776 | 0.909 | 0.793 | 0.714 | 0.761 | 0.984 | 1.18 | 1.25 | 1.28
4 | BEN | 0.615 | 0.465 | 0.49 | 0.6 | 0.676 | 0.693 | 0.802 | 0.977 | 0.824 | 0.949 | 0.482 | 0.434 | 0.439 | 0.473 | 0.469 | 0.647 | 0.634 | 0.588 | 0.567 | 0.577
5 | CAL-12T | 0.793 |  | 0.382 | 0.35 | 0.598 | 1.11 |  | 0.922 | 0.795 | 0.926 | 0.56 | 0.383 | 0.462 | 0.478 | 0.595 | 0.974 | 1.04 | 1.04 | 1.33 | 1.06
6 | COR-L23 | 0.585 | 0.84 | 0.875 | 0.899 | 0.968 | 0.89 | 1.17 | 1 | 1.28 | 1.21 | 0.215 | 0.232 | 0.309 | 0.299 | 0.307 | 1.04 | 0.993 | 1.02 | 0.994 | 1.18
7 | COR-L 105 | 0.392 | 0.435 | 0.425 | 0.325 | 0.338 | 0.879 | 0.664 | 0.694 | 0.737 | 0.891 | 0.41 | 0.354 | 0.405 | 0.391 | 0.392 | 0.896 | 1.11 | 0.951 | 1.23 | 0.997
8 | Calu-6 | 0.997 | 0.785 | 0.949 | 0.962 | 0.986 | 1 | 1.08 | 0.954 | 1 | 0.922 |  |  |  |  |  | 0.922 | 0.855 | 0.888 | 0.872 | 0.879
9 | ChaGo-K-1 | 0.873 | 0.506 | 0.383 | 0.662 | 0.64 | 1.04 | 0.895 | 0.687 | 1.06 | 1.02 | 0.967 | 0.942 | 0.912 | 0.975 | 0.989 | 0.939 | 1.04 | 0.929 | 0.911 | 1.04
10 | EKVX | 0.458 | 0.383 | 0.476 | 0.427 | 0.476 | 1.26 | 0.925 | 1.04 | 0.916 | 1.09 | 0.354 | 0.374 | 0.377 | 0.74 | 0.412 | 0.824 | 0.795 | 0.753 | 0.767 | 0.75
11 | EMC-BAC-2 | 0.593 | 0.417 | 0.547 | 0.55 | 0.612 | 0.981 | 1.03 | 1.06 | 1.12 | 1.17 | 0.52 | 0.45 | 0.519 | 0.514 | 0.523 | 0.998 | 0.877 | 1.08 | 0.941 | 0.985
12 | EPLC-272H | 0.282 | 0.246 | 0.333 | 0.297 | 0.349 | 0.762 | 0.579 | 0.736 | 0.861 | 1.08 | 0.281 | 0.34 | 0.309 | 0.285 | 0.295 | 0.776 | 0.673 | 0.709 | 0.703 | 0.799
13 | H3255 | 0.513 | 0.517 | 0.462 | 0.474 | 0.507 | 0.835 | 0.743 | 0.722 | 0.68 | 0.702 | 0.335 | 0.32 | 0.303 | 0.318 | 0.312 | 0.924 | 0.84 | 0.818 | 0.783 | 0.798
14 | HARA | 0.316 | 0.383 | 0.508 | 0.407 | 0.362 | 1.1 | 1.19 | 1.02 | 1.13 | 1.06 | 0.239 | 0.292 | 0.26 | 0.302 | 0.23 | 0.957 | 0.918 | 0.891 | 0.921 | 1.07
15 | HCC-15 | 0.773 | 0.668 | 0.749 | 0.744 | 0.659 | 0.951 | 0.918 | 1.08 | 1.09 | 1.2 | 0.754 | 0.762 | 0.745 | 0.731 | 0.574 | 1.1 | 1.04 | 1.04 | 1.04 | 1.05
16 | HCC-44 | 0.475 | 0.61 | 0.588 | 0.552 | 0.661 | 0.875 | 0.865 | 0.883 | 0.914 | 0.955 | 0.952 | 1.03 | 1.01 | 1.04 | 1.03 |  |  |  |  | 
17 | HCC-78 | 0.21 | 0.176 | 0.221 | 0.224 | 0.165 | 0.425 | 0.482 | 0.525 | 0.519 | 0.568 | 0.469 | 0.48 | 0.483 | 0.527 | 0.451 | 0.602 | 0.498 | 0.482 | 0.488 | 0.553
